Assay results as given in ChEMBL document CHEMBL3352542, “Synthesis, biological evaluation and molecular modeling study of 2-(1,3,4-thiadiazolyl-thio and 4-methyl-thiazolyl-thio)-quinazolin-4-ones as a new class of DHFR inhibitors” (Bioorg Med Chem Lett, 2014).
Activity calls are given as the source filed them. The rule behind the calls is not given here.

Experiments:
[1] = biological target: T1, Dihydrofolate reductase (Bos taurus, UniProt P00376); experiment: Inhibition of bovine liver DHFR
T1 sequence (P00376 whole entry): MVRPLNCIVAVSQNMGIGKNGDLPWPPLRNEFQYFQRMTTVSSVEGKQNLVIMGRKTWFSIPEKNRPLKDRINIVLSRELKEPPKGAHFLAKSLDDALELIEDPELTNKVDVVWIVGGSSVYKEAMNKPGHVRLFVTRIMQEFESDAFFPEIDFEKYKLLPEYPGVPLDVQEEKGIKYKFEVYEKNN

[2] = test system: Staphylococcus aureus; experiment: Antimicrobial activity against Staphylococcus aureus assessed as inhibition zone at 200 ug/disk after 24 hrs by disc-diffusion method; type: functional; conditions: read-out: IZ
[3] = test system: Bacillus subtilis; experiment: Antimicrobial activity against Bacillus subtilis assessed as inhibition zone at 200 ug/disk after 24 hrs by disc-diffusion method; type: functional; conditions: read-out: IZ
[4] = test system: Escherichia coli; experiment: Antimicrobial activity against Escherichia coli assessed as inhibition zone at 200 ug/disk after 24 hrs by disc-diffusion method; type: functional; conditions: read-out: IZ
[5] = test system: Pseudomonas aeruginosa; experiment: Antimicrobial activity against Pseudomonas aeruginosa assessed as inhibition zone at 200 ug/disk after 24 hrs by disc-diffusion method; type: functional; conditions: read-out: IZ
[6] = test system: Candida albicans; experiment: Antimicrobial activity against Candida albicans assessed as inhibition zone at 200 ug/disk after 24 hrs by disc-diffusion method; type: functional; conditions: read-out: IZ
[7] = test system: HL-60(TB); experiment: Growth inhibition of human HL-60(TB) cells at 10 uM after 48 hrs; type: functional
[8] = test system: K562; experiment: Growth inhibition of human K562 cells at 10 uM after 48 hrs; type: functional
[9] = test system: SR; experiment: Growth inhibition of human SR cells at 10 uM after 48 hrs; type: functional
[10] = (§1) Growth inhibition of human HOP92 cells at 10 uM after 48 hrs; type: functional; conditions: HOP-92, 48 h, read-out: GI
[11] = (§2) Growth inhibition of human SF295 cells at 10 uM after 48 hrs; type: functional; conditions: SF-295, 48 h, read-out: GI
[12] = test system: SNB-19; experiment: Growth inhibition of human SNB19 cells at 10 uM after 48 hrs; type: functional
[13] = test system: U-251; experiment: Growth inhibition of human U251 cells at 10 uM after 48 hrs; type: functional
[14] = test system: Malme-3M; experiment: Growth inhibition of human MALME-3M cells at 10 uM after 48 hrs; type: functional
[15] = test system: A498; experiment: Growth inhibition of human A498 cells at 10 uM after 48 hrs; type: functional
[16] = test system: CAKI-1; experiment: Growth inhibition of human CAKI-1 cells at 10 uM after 48 hrs; type: functional
[17] = (§3) Growth inhibition of human UO31 cells at 10 uM after 48 hrs; type: functional; conditions: UO-31, 48 h, read-out: GI
[18] = (§4) Growth inhibition of human PC3 cells at 10 uM after 48 hrs; type: functional; conditions: PC-3, 48 h, read-out: GI
[19] = (§5) Growth inhibition of human Hs 578T cells at 10 uM after 48 hrs; type: functional; conditions: read-out: GI
[20] = test system: T47D; experiment: Growth inhibition of human T47D cells at 10 uM after 48 hrs; type: functional
[21] = test system: CCRF-CEM; experiment: Growth inhibition of human CCRF-CEM cells at 10 uM after 48 hrs; type: functional
[22] = test system: MOLT-4; experiment: Growth inhibition of human MOLT4 cells at 10 uM after 48 hrs; type: functional
[23] = test system: RPMI-8226; experiment: Growth inhibition of human RPMI8226 cells at 10 uM after 48 hrs; type: functional
[24] = test system: A549; experiment: Growth inhibition of human A549 cells at 10 uM after 48 hrs; type: functional
[25] = test system: HOP-92; experiment: as §1; type: functional
[26] = test system: NCI-H226; experiment: Growth inhibition of human NCI-H226 cells at 10 uM after 48 hrs; type: functional
[27] = test system: NCI-H522; experiment: Growth inhibition of human NCI-H522 cells at 10 uM after 48 hrs; type: functional
[28] = test system: HCT-116; experiment: Growth inhibition of human HCT116 cells at 10 uM after 48 hrs; type: functional
[29] = test system: HCT-15; experiment: Growth inhibition of human HCT15 cells at 10 uM after 48 hrs; type: functional
[30] = test system: HT-29; experiment: Growth inhibition of human HT-29 cells at 10 uM after 48 hrs; type: functional
[31] = test system: KM12; experiment: Growth inhibition of human KM12 cells at 10 uM after 48 hrs; type: functional
[32] = test system: SF-295; experiment: as §2; type: functional
[33] = test system: SF-539; experiment: Growth inhibition of human SF539 cells at 10 uM after 48 hrs; type: functional
[34] = test system: MDA-MB-435; experiment: Growth inhibition of human MDA-MB-435 cells at 10 uM after 48 hrs; type: functional
[35] = test system: SK-MEL-5; experiment: Growth inhibition of human SK-MEL-5 cells at 10 uM after 48 hrs; type: functional
[36] = test system: UACC-257; experiment: Growth inhibition of human UACC257 cells at 10 uM after 48 hrs; type: functional
[37] = test system: UACC-62; experiment: Growth inhibition of human UACC62 cells at 10 uM after 48 hrs; type: functional
[38] = test system: OVCAR-4; experiment: Growth inhibition of human OVCAR4 cells at 10 uM after 48 hrs; type: functional
[39] = test system: 786-0; experiment: Growth inhibition of human 786-0 cells at 10 uM after 48 hrs; type: functional
[40] = test system: RXF 393; experiment: Growth inhibition of human RXF393 cells at 10 uM after 48 hrs; type: functional
[41] = test system: UO-31; experiment: as §3; type: functional
[42] = test system: PC-3; experiment: as §4; type: functional
[43] = test system: MCF7; experiment: Growth inhibition of human MCF7 cells at 10 uM after 48 hrs; type: functional
[44] = test system: MDA-MB-231; experiment: Growth inhibition of human MDA-MB-231 cells at 10 uM after 48 hrs; type: functional
[45] = test system: Hs-578T; experiment: as §5; type: functional
[46] = test system: MDA-MB-468; experiment: Growth inhibition of human MDA-MB-468 cells at 10 uM after 48 hrs; type: functional
[47] = test system: HOP-62; experiment: Growth inhibition of human HOP62 cells at 10 uM after 48 hrs; type: functional
[48] = test system: SK-MEL-28; experiment: Growth inhibition of human SK-MEL-28 cells at 10 uM after 48 hrs; type: functional, cell-based

COc1cc2nc(Sc3nnc(N)s3)n(-c3ccc(Cl)cc3)c(=O)c2cc1OC
IC50 [1]: 6 µM | zone of inhibition at 200 µg/disc [2]: 8 mm | zone of inhibition at 200 µg/disc [3]: 8 mm | zone of inhibition at 200 µg/disc [4]: 8 mm | zone of inhibition at 200 µg/disc [5]: 8 mm | zone of inhibition at 200 µg/disc [6]: 8 mm | inhibition of growth at 10 µM ([7]; HL-60, 48 h, read-out: GI): 31.5% | inhibition of growth at 10 µM ([8]; K562, 48 h, read-out: GI): 15.3% | inhibition of growth at 10 µM ([9]; read-out: GI): 14.4% | inhibition of growth at 10 µM [10]: 40.9% | inhibition of growth at 10 µM [11]: 12.1% | inhibition of growth at 10 µM ([12]; SNB-19, 48 h, read-out: GI): 11.9% | inhibition of growth at 10 µM ([13]; U-251, 48 h, read-out: GI): 11.5% | inhibition of growth at 10 µM ([14]; read-out: GI): 12.4% | inhibition of growth at 10 µM ([15]; A498, 48 h, read-out: GI): 18.8% | inhibition of growth at 10 µM ([16]; CAKI-1, 48 h, read-out: GI): 12.6% | inhibition of growth at 10 µM [17]: 23.6% | inhibition of growth at 10 µM [18]: 11.2% | inhibition of growth at 10 µM [19]: 10.9% | inhibition of growth at 10 µM ([20]; read-out: GI): 13.7%

Cc1ccc2nc(Sc3nnc(N)s3)n(-c3ccccc3)c(=O)c2c1
IC50 [1]: 7 µM | zone of inhibition at 200 µg/disc [2]: 8 mm | zone of inhibition at 200 µg/disc [3]: 8 mm | zone of inhibition at 200 µg/disc [4]: 8 mm | zone of inhibition at 200 µg/disc [5]: 8 mm | zone of inhibition at 200 µg/disc [6]: 8 mm | growth inhibition (GI) [21]: inactive | growth inhibition (GI) [7]: inactive | growth inhibition (GI) [8]: inactive | growth inhibition (GI) [22]: inactive | growth inhibition (GI) [23]: inactive | growth inhibition (GI) [9]: inactive | growth inhibition (GI) [24]: inactive | growth inhibition (GI) [25]: inactive | growth inhibition (GI) [26]: inactive | growth inhibition (GI) [27]: inactive | growth inhibition (GI) [28]: inactive | growth inhibition (GI) [29]: inactive | growth inhibition (GI) [30]: inactive | growth inhibition (GI) [31]: inactive | growth inhibition (GI) [32]: inactive | growth inhibition (GI) [33]: inactive | growth inhibition (GI) [12]: inactive | growth inhibition (GI) [13]: inactive | growth inhibition (GI) [14]: inactive | growth inhibition (GI) [34]: inactive | growth inhibition (GI) [35]: inactive | growth inhibition (GI) [36]: inactive | growth inhibition (GI) [37]: inactive | growth inhibition (GI) [38]: inactive | growth inhibition (GI) [39]: inactive | growth inhibition (GI) [15]: inactive | growth inhibition (GI) [16]: inactive | growth inhibition (GI) [40]: inactive | growth inhibition (GI) [41]: inactive | growth inhibition (GI) [42]: inactive | growth inhibition (GI) [43]: inactive | growth inhibition (GI) [44]: inactive | growth inhibition (GI) [45]: inactive | growth inhibition (GI) [20]: inactive | growth inhibition (GI) [46]: inactive | growth inhibition (GI) [47]: inactive | growth inhibition (GI) [48]: inactive
